# Source: patent US20020088018A1, “Transgenic mice containing MAS orphan receptor gene disruptions” (priority 2000, published 2002)
# System: mice (wild-type and MAS receptor gene homozygous mutant)
# Assay: Metrazol administration test (metrazol dose testing, seizure susceptibility)
# Type: in vivo, mouse
# Conditions: for Dose (mg/kg body weight), Observable: T/C / Dose (mg/kg body weight), Observable: Death / Dose (mg/kg body weight), Observable: Twitch / Dose (mg/kg body weight), Observable: Extension: F2N1 mice; for Dose (mg/kg body weight), Observable: T/C: metrazol dose to T/C seizure; for Dose (mg/kg body weight), Observable: Death: metrazol dose to death; for Dose (mg/kg body weight), Observable: Twitch: metrazol dose to first twitch; for Dose (mg/kg body weight), Observable: Extension: metrazol dose to tonic extension
# Experimental: A metrazol administration test can be used to screen animals for varying susceptibilities to seizures or similar events. For example, a 5 mg/ml solution of metrazol can be infused through the tail vein of a mouse at a rate of, e.g., approximately 0.375 ml/min. The infusion will cause all mice to experience seizures, followed by death. Those mice that enter the seizure stage the soonest are believed to be more prone to seizures.
# The transgenic mice were analyzed for phenotypic changes. […] These characteristics response parameters are: (1) first twitch; (2) tonic/clonic seizure; (3) tonic extension, […]; and (4) death.
# [1] = genotype −/− (MAS homozygous mutant)
smiles,measurement,setting,value
C1CCc2nnnn2CC1 [metrazol],"Dose (mg/kg body weight), Observable: T/C",genotype +/+ (wild-type),37.94 mg/kg body weight
same,"Dose (mg/kg body weight), Observable: Death",genotype +/+ (wild-type),96.27 mg/kg body weight
same,"Dose (mg/kg body weight), Observable: Twitch",genotype +/+ (wild-type),25.59 mg/kg body weight
same,"Dose (mg/kg body weight), Observable: Extension",genotype +/+ (wild-type),75.60 mg/kg body weight
same,"Dose (mg/kg body weight), Observable: T/C",[1],45.28 mg/kg body weight
same,"Dose (mg/kg body weight), Observable: Death",[1],138.55 mg/kg body weight
same,"Dose (mg/kg body weight), Observable: Twitch",[1],33.95 mg/kg body weight
same,"Dose (mg/kg body weight), Observable: Extension",[1],115.89 mg/kg body weight
same,response threshold to metrazol,homozygous mutants as compared to wild-type animals,increased
